# Test results as given in US7452865B2, “Antagonistic analogs of GH RH (2003)” (The Administrare's of the Tulane Educational Fund, priority 2004, dated 2008).
# Marks after values point to notes of the source that are not given here. Square brackets hold non-standard residues; d marks the D form. Peptide text beside a SMILES is read from it. * marks the point of attachment. Phe(4-amidino) = N=C(N)c1ccc(C[C@H](N)C(=O)O)cc1; Phe(4-Cl) = N[C@@H](Cc1ccc(Cl)cc1)C(=O)O; hArg = N=C(N)NCCCC[C@H](N)C(=O)O; Nle = CCCC[C@H](N)C(=O)O; Abu = CC[C@H](N)C(=O)O; PhAc = O=C(Cc1ccccc1)*
# Assays:
# [1] = system: hGH-RH(1-29)NH2 induced GH release; assay: Inhibition of GH release in superfused rat pituitary system; assay type: cell-based
# How it was run: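 GH output was quantified by double-antibody RIA in superfusates of rat pituitary cells. Peptides were applied for 9 min at various concentrations before a 3-min 1 nM hGH-RH(1-29)NH2 pulse, with further pulses 30–120 min later; net integral responses given as percent of the original response.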
# [2] = system: PC-3 human prostate cancer xenografts; assay: PC-3 xenografts in nude mice, Experiment 1: tumor growth; assay type: in vivo
# Protocol: (§1) Male nude mice were implanted s.c. with 3 mm^3 pieces of PC-3 human hormone-independent prostate cancer tissue on both flanks. When tumors reached a volume of approx. 50 mm^3, the mice were divided into 5 experimental groups with 7 to 8 animals in each group and received single daily injections for 28 days as follows: 1. Control (vehicle solution); 2. JV-1-38 (10 μg/day s.c.); 3 Peptide 31 (10 μg/day s.c.); 4. Peptide 67 (10 μg/day s.c.); 5. Peptide 62 (10 μg/day s.c.). Tumor volumes were measured twice a week. The experiment was ended on day 29 by sacrificing the mice under Isoflurane anesthesia. Resulting tumors were cleaned, weighed, and snap-frozen until further analyses. Trunk blood was collected from the abdominal aorta and serum was separated for RIA measurement of IGF-I. Statistical analyses of the measurement results were done by two-tailed t-test; data are presented as the means±S.E.
# [3] = system: IGF-I; assay: PC-3 xenografts, Experiment 1: serum IGF-I (RIA); assay type: in vivo, nude mice; conditions: 10 μg/day s.c., 28 days
# From the text: (§2) For the measurement of GH and IGF-I levels in the serum, as well as IGF-I and IGF-II concentrations in the cytosol fraction of tumors, blood samples and tumor samples were collected and processed as described (Braczkowski R, Schally A V, Plonowski A, Varga J L, Groot K, Krupa M, Armatis P, Cancer 95: 1735-1745, 2002), hereby incorporated by reference. Briefly, blood samples are centrifuged to separate the serum, tumors are homogenized and centrifuged to separate the cytosol fraction. Serum GH is then measured by the double-antibody RIA method. Before measurement by RIA, IGF-I and IGF-II are extracted from serum and cytosol fractions using an acid-ethanol cryoprecipitation method that eliminates most of the IGF binding proteins, which can interfere with the RIA. IGF-I concentration is measured by RIA using IGF-I as a standard and goat anti-IGF-I antibody (both from DSL Inc., Webster, Tex.). IGF-II concentration is measured by RIA using human recombinant IGF-II (Bachem) as a standard and anti-IGF-II monoclonal antibody (Amano International Enzyme, Troy, Va.).
# as §1
# [4] = system: IGF-II; assay: PC-3 xenografts, Experiment 1: tumor IGF-II (RIA); assay type: in vivo, nude mice; conditions: 10 μg/day s.c., 28 days
# From the text: as §2, §1
# [5] = system: DMS-153 human SCLC xenografts; assay: DMS-153 human SCLC xenografts in nude mice: tumor growth; assay type: in vivo
# Protocol: (§3) Male nude mice were implanted s.c. with 3 mm^3 pieces of DMS-153 human SCLC tissue. When tumors reached a volume of approx. 100 mm^3 the mice were divided into 3 experimental groups of 68 animals each and received the following treatment for 6 weeks group 1 (control), vehicle solution; group 2, Peptide 67 (10 μg/day s.c.); group 3, Peptide 31 (10 μg/day s.c.). Tumor volumes were recorded twice a week. At the end of treatment, mice were anesthetized with isoflurane, killed by decapitation, trunk blood was collected for measurement of serum IGF-I, and tumors were excised and weighed. Data are presented as means±S.E. Data were evaluated by one way ANOVA and the Student-Newman-Keuls test.
# [6] = system: IGF-I; assay: DMS-153 human SCLC xenografts: serum IGF-I; assay type: in vivo, nude mice; conditions: 10 μg/day s.c., 6 weeks
# From the text: as §2, §3
# [7] = system: mRNA for IGF-II; assay: DMS-153 human SCLC xenografts: expression of mRNA for IGF-II; assay type: in vivo, nude mice; conditions: 10 μg/day s.c., 6 weeks, control group 100±1.5%
# Protocol: as §3
# [8] = system: H-69 human SCLC xenografts; assay: H-69 human SCLC xenografts in nude mice: tumor growth; assay type: in vivo; conditions: H-69
# Protocol: Male nude mice were implanted s.c. with 3 mm^3 pieces of H-69 human SCLC tissue. When tumors reached a volume of approx. 80 mm^3 the mice were divided into 4 experimental groups of 7-8 animals each and received the following treatment for 4 weeks: group I (control), vehicle solution; group 2, Peptide 67 (10 μg/day s.c.); group 3, Peptide 31 (10 μg/day s.c.); group 4, Peptide 72 (10 μg/day s.c.). Tumor volumes were recorded twice a week. At the end of treatment, mice were anesthetized with isoflurane, killed by decapitation, and tumors were excised and weighed. Data are presented as means±S.E. Data were evaluated by one way ANOVA and the Student-Newman-Keuls test.
# [9] = system: pituitary; conditions: cited from earlier work
# [10] = system: rat anterior pituitary adenylate cyclase; conditions: cited from earlier work
# [11] = system: GH secretion; conditions: cited from earlier work
# [12] = 10 μg/day s.c., 28 days, vs control
# [13] = 10 μg/day s.c., 6 weeks, vs control
compound,measurement,setting,value
"CCCC[C@H](NC(=O)[C@@H](NC(=O)[C@H](CC(=O)O)NC(=O)[C@H](CCC(N)=O)NC(=O)[C@H](CC(C)C)NC(=O)[C@H](CC(C)C)NC(=O)[C@H](CCCCN)NC(=O)[C@H](CCCNC(=N)N)NC(=O)[C@H](C)NC(=O)[C@H](CO)NC(=O)[C@H](CC(C)C)NC(=O)[C@H](CCC(N)=O)NC(=O)[C@H](CC)NC(=O)[C@H](CC(C)C)NC(=O)[C@@H](NC(=O)[C@H](CCCCN)NC(=O)[C@H](CCCNC(=N)N)NC(=O)[C@H](Cc1ccc(C(=N)N)cc1)NC(=O)[C@H](CCCCNC(=N)N)NC(=O)[C@H](CC(N)=O)NC(=O)[C@@H](NC(=O)[C@H](Cc1ccc(Cl)cc1)NC(=O)[C@@H](NC(=O)[C@H](C)NC(=O)[C@H](CC(=O)O)NC(=O)[C@@H](CCCNC(=N)N)NC(=O)[C@H](Cc1ccc(O)cc1)NC(=O)Cc1ccccc1)[C@@H](C)CC)[C@@H](C)O)C(C)C)[C@@H](C)CC)C(=O)N[C@H](CCCNC(=N)N)C(=O)N[C@@H](CCCCNC(=N)N)C(N)=O [Peptide 31, [PhAc-Tyr^1, D-Arg^2, Phe(pCl)^6, Har^9, Amp^10, Abu^15, Nle^27, D-Arg^28, Har^29]hGH-RH(1-29)NH2] (PhAc-Y[dR]DAI[Phe(4-Cl)]TN[hArg][Phe(4-amidino)]RKVL[Abu]QLSARKLLQDI[Nle][dR][hArg]-NH2)",GH response (% of control) 0 min,"[1]; antagonist 10 nM, 0 min",57 % of control
same,GH response (% of control) 30 min,"[1]; antagonist 10 nM, 30 min",31 % of control
same,GH response (% of control) 60 min,"[1]; antagonist 10 nM, 60 min",37 % of control
same,GH response (% of control) 90 min,"[1]; antagonist 10 nM, 90 min",36 % of control
same,GH response (% of control) 120 min,"[1]; antagonist 10 nM, 120 min",37 % of control
same,GH response (% of control) 0 min,"[1]; antagonist 30 nM, 1 nM hGH-RH(1-29)NH2 at 0 min",7 % of control
same,GH response (% of control) 30 min,"[1]; antagonist 30 nM, 1 nM hGH-RH(1-29)NH2 at 30 min",1 % of control
same,GH response (% of control) 60 min,"[1]; antagonist 30 nM, 1 nM hGH-RH(1-29)NH2 at 60 min",2 % of control
same,GH response (% of control) 90 min,"[1]; antagonist 30 nM, 1 nM hGH-RH(1-29)NH2 at 90 min",4 % of control
same,GH response (% of control) 120 min,"[1]; antagonist 30 nM, 1 nM hGH-RH(1-29)NH2 at 120 min",3 % of control
same,endocrine antagonistic potency: inhibition of the GH release stimulated by hGH-RH(1-29)NH2 (in words),"[1]; general statement, in vitro and in vivo",high endocrine antagonistic potencies
same,Tumor volume (mm^3) Final,"[2]; 10 μg/day s.c., 28 days",363 ± 92.8 mm^3
same,Tumor volume doubling time,"[2]; 10 μg/day s.c., 28 days",14.0 ± 2.69 days
same,Tumor weight,"[2]; 10 μg/day s.c., 28 days",237 ± 53.3 mg
same,Tumor volume Final (% inhibition),[2]; [12],(28%)
same,Tumor weight (% inhibition),[2]; [12],(37%)
same,Tumor volume (mm^3) Initial,[2]; at start of treatment,49.1 ± 12.5 mm^3
same,Serum IGF-I,[3],133 ± 16.7 ng/mL
same,Serum IGF-I (% inhibition),[3]; vs control,(11%)
same,Tumor IGF-II (pg/mg protein),[4],130 ± 56.0 pg/mg protein
same,Tumor IGF-II (% inhibition),[4]; vs control,(41%)
same,Tumor volume (mm^3) Final,"[5]; 10 μg/day s.c., 6 weeks",3329 ± 180 mm^3
same,Tumor weight,"[5]; 10 μg/day s.c., 6 weeks",1.58 ± 0.11 g
same,Tumor volume Final (% inhibition),[5]; [13],(10%)
same,Tumor weight (% inhibition),[5]; [13],(32%)
same,Tumor volume (mm^3) Initial,[5]; at start of treatment,138 ± 20 mm^3
same,Serum IGF-I,[6],118.4 ± 12.5 ng/mL
same,Serum IGF-I (% inhibition),[6]; vs control,(30%)
same,level of expression of mRNA for IGF-II,[7],42.7±18.5%
same,Tumor volume (mm^3) Final,"[8]; 10 μg/day s.c., 4 weeks",832 ± 23* mm^3
same,Tumor volume Final (% inhibition),"[8]; 10 μg/day s.c., 4 weeks, vs control",(67%)
same,Tumor volume (mm^3) Initial,[8]; at start of treatment,80 ± 6 mm^3
Tyr-Ala-Asp-Ala-Ile^5-Phe-Thr-Asn-Ser-Tyr^10-Arg-Lys-Val-Leu-Gly^15-Gln-Leu-Ser-Ala-Arg^20-Lys-Leu-Leu-Gln-Asp^25-Ile-Met-Ser-Arg^29-NH2 [GH-RH(1-29)],potency retained relative to native GH-RH,[9],≥ 50%
"[Ac-Tyr^1, D-Arg^2]hGH-RH(1-29)NH2 [Standard antagonist, reference compound]",GH response (% of control) 0 min,"[1]; antagonist 100 nM, 0 min",38 % of control
same,GH response (% of control) 30 min,"[1]; antagonist 100 nM, 30 min",98 % of control
same,GH response (% of control) 60 min,"[1]; antagonist 100 nM, 60 min",81 % of control
same,activation of rat anterior pituitary adenylate cyclase by hGH-RH(1-29)NH2,[10],prevent the activation
same,nocturnal GH secretion,"[11]; 400 μg/kg, normal subjects",eliminated nocturnal GH secretion
same,GH levels,[11]; a patient with acromegaly,reduced GH levels
